pIC50: −log10 of the molar value.
System: 422866-222-R5-J1-PDC spheroids with HUVEC/MSC, viability
Assay: Anticancer human tumor 422866-222-R5-J1-PDC patient-derived pancreatic adenocarcinoma cell line growth inhibition [GQUAD]
Settings: for pIC50: curve of first compound; for viability, T/C: stronger effect = lower value
Outline: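 Viability of tumor cells grown as complex spheroids with endothelial and stromal cells, exposed to drug combinations. Top concentration at or near clinical Cmax (else 10 microM), diluted in half-log increments.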
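Further: spheroids exposed to compounds for seven days before reading.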
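Wherever viability, T/C is given: percent viability relative to DMSO vehicle control taken as 100%.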

## C=CCn1c(=O)c2cnc(Nc3ccc(N4CCN(C)CC4)cc3)nc2n1-c1cccc(C(C)(C)O)n1 + Cc1cnc(CNC(=O)c2c(=O)c3ccc(N4CCCN(C)CC4)nc3n3c2sc2ccccc23)cn1
Second compound 0.0316 µM
  pIC50: 6.51
Second compound 0.1 µM
  pIC50: 6.26
Second compound 0.316 µM
  pIC50: 5.88
Second compound 1 µM
  pIC50: 5.64
Second compound 3.16 µM
  pIC50: 5.49
Second compound 10 µM
  pIC50: 5.56
Second compound 0.0316 µM, first compound 0.0316 µM
  viability, T/C: 86.8%
Second compound 0.0316 µM, first compound 0.1 µM
  viability, T/C: 70%
Second compound 0.0316 µM, first compound 0.316 µM
  viability, T/C: 51.6%
Second compound 0.0316 µM, first compound 1 µM
  viability, T/C: 35.2%
Second compound 0.0316 µM, first compound 3.16 µM
  viability, T/C: 29.1%
Second compound 0.0316 µM, first compound 10 µM
  viability, T/C: 34.2%
Second compound 0.1 µM, first compound 0.0316 µM
  viability, T/C: 89.2%
Second compound 0.1 µM, first compound 0.1 µM
  viability, T/C: 71.9%
Second compound 0.1 µM, first compound 0.316 µM
  viability, T/C: 54.1%
Second compound 0.1 µM, first compound 1 µM
  viability, T/C: 45.5%
Second compound 0.1 µM, first compound 3.16 µM
  viability, T/C: 38.5%
Second compound 0.1 µM, first compound 10 µM
  viability, T/C: 36.7%
Second compound 0.316 µM, first compound 0.0316 µM
  viability, T/C: 85%
Second compound 0.316 µM, first compound 0.1 µM
  viability, T/C: 80.2%
Second compound 0.316 µM, first compound 0.316 µM
  viability, T/C: 63.5%
Second compound 0.316 µM, first compound 1 µM
  viability, T/C: 52.4%
Second compound 0.316 µM, first compound 3.16 µM
  viability, T/C: 43.6%
Second compound 0.316 µM, first compound 10 µM
  viability, T/C: 34.2%
Second compound 1 µM, first compound 0.0316 µM
  viability, T/C: 74.7%
Second compound 1 µM, first compound 0.1 µM
  viability, T/C: 74.2%
Second compound 1 µM, first compound 0.316 µM
  viability, T/C: 64.8%
Second compound 1 µM, first compound 1 µM
  viability, T/C: 57.3%
Second compound 1 µM, first compound 3.16 µM
  viability, T/C: 46.2%
Second compound 1 µM, first compound 10 µM
  viability, T/C: 44.8%
Second compound 3.16 µM, first compound 0.0316 µM
  viability, T/C: 82.8%
Second compound 3.16 µM, first compound 0.1 µM
  viability, T/C: 64.5%
Second compound 3.16 µM, first compound 0.316 µM
  viability, T/C: 65.5%
Second compound 3.16 µM, first compound 1 µM
  viability, T/C: 62.4%
Second compound 3.16 µM, first compound 3.16 µM
  viability, T/C: 51.4%
Second compound 3.16 µM, first compound 10 µM
  viability, T/C: 39.6%
Second compound 10 µM, first compound 0.0316 µM
  viability, T/C: 72.9%
Second compound 10 µM, first compound 0.1 µM
  viability, T/C: 73.4%
Second compound 10 µM, first compound 0.316 µM
  viability, T/C: 70.8%
Second compound 10 µM, first compound 1 µM
  viability, T/C: 60.8%
Second compound 10 µM, first compound 3.16 µM
  viability, T/C: 49%
Second compound 10 µM, first compound 10 µM
  viability, T/C: 42.3%
